Reference: patent US5602099A, “δ opioid receptor antagonists” (Aktiebolaget Astra, priority 1993, dated 1997)
Read-outs that look alike come from different tables or passages of the source. Peptide text beside a SMILES is read from it.

What was measured:
δ opioid receptor = biological target: T1, δ opioid receptor (Rattus norvegicus, UniProt P33533); assay: δ opioid receptor binding assay, displacement of δ-selective radioligand from rat brain membranes; settings: for Ki^μ /Ki^δ: δ-selectivity ratio
T1 construct: Male Sprague-Dawley rats (300-350 g) from the Canadian Breeding Laboratories were decapitated and after removal of the cerebellum the brains were homogenized; from tissue; host or cells: rat brain (without cerebellum) membranes, male Sprague-Dawley
T1 sequence (P33533 whole entry): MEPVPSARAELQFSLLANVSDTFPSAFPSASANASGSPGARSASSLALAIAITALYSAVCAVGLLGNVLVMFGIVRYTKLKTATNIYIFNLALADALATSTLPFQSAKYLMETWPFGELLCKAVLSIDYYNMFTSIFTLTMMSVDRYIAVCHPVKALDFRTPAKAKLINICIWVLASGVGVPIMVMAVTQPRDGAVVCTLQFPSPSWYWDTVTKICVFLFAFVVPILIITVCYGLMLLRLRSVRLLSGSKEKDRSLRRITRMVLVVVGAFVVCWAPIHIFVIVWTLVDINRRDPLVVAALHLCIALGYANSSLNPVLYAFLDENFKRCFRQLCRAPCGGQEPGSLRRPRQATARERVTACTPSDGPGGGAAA
Excerpt: (§1) In the case of κ-ligands guinea pig brain homogenates were used, since the relative proportion of κ-binding sites is higher in guinea pig brain than in rat brain. The experimental procedure being used in our laboratory represents a modified version of the binding assay described by Pasternak et al. (Mol. Pharmacol. 11, 340-351, (1975)). Male Sprague-Dawley rats (300-350 g) from the Canadian Breeding Laboratories were decapitated and after removal of the cerebellum the brains were homogenized in 30 volumes of ice-cold standard buffer (50 mM Tris-HCl, pH 7.7). After centrifugation at 30,000×g for 30 min at 4° C. the membranes were reconstituted in the original volume of standard buffer and incubated for 30 min at 37° C. (to realease bound endogenous ligands). […] The incubation was terminated by filtration through Batman GF/B filters under vacuum at 4° C. Following two washings with 5 ml portions of ice-cold standard buffer the filters were transferred to scintillation vials and treated with 1 ml Protosol (New England Nuclear) for 30 min prior to the addition of 0.5 ml acetic acid and 10 ml Aquasol (New England Nuclear). After shaking for 30 min the vials were counted at an efficiency of 40-45%. All experiments were performed in duplicates and repeated at least three times. […] Values of half-maximal inhibition (IC50) of specific binding were obtained graphically from semilogarithmic plots. From the measured IC50-values, binding inhibition constants (Ki) were then calculated based on Cheng and Prusoff's equation (Biochem, Pharmacol. 22, 3099-3102 (1973)). Ratios of the Ki -values in the μ-, δ- and κ-representative binding assays are a measure of the receptor selectivety of the compound under investigation (e.g. Ki^μ /Ki^δ indicates the selectivity for δ-receptors versus μ-receptors).

δ opioid receptors = biological target: T2, δ opioid receptors (Mus musculus, UniProt P32300); assay: Mouse vas deferens (MVD) bioassay, antagonism of electrically evoked contraction inhibition by δ-selective agonists; assay type: tissue-based; settings: MVD assay, means of 3-8 determinations
T2 construct: Bioassays Using Isolated Organ Preparations; from tissue; host or cells: mouse vas deferens (isolated organ)
T2 sequence (P32300 whole entry): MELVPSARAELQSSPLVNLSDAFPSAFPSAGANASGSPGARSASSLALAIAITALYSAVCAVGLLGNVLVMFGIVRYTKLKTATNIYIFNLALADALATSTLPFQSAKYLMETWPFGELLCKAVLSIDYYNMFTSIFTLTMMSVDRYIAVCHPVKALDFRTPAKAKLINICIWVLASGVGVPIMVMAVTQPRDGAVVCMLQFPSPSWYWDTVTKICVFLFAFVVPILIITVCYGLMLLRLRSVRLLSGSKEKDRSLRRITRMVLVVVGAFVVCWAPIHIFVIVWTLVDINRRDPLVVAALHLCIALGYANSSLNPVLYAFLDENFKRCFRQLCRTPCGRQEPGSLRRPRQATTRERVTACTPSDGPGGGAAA
Excerpt: a) Biosassys based on inhibition of electrically evoked contractions of the mouse vas deferens (MVD) and of the guinea pig ileum (GPI). In the GPI assay the opioid effect is primarily mediated by μ opioid receptors, whereas in the MVD assay the inhibition of the contractions is mostly due to interaction with δ opioid receptors.
The GPI and MVD bioassays were carded out as reported in P. W. Schiller et al., Biochem. Biophys. Res. Commun 85, 1332-1338 (1978) and J. Di Maio et al., J. Med. Chem. 25, 1432-1438 (1982). A log dose-response curve was determind with [Leu^5 ]enkephalin as standard for each ileum and vas preparation, and IC50 values of the compounds being tested were normalized according to A. A Waterfield et al., Eur. J. Pharmacol. 58, 11-18 (1979). […] These determinations were made with the MVD assay, using three different δ-selective agonists ([Leu^5 ] enkephalin, DPDPE and [D-Ala^2 ]deltorphin I].

μ opioid receptor = biological target: T3, μ opioid receptor (Rattus norvegicus, UniProt P33535); assay: μ opioid receptor binding assay, displacement of [3H]DAMGO from rat brain membranes
T3 construct: Male Sprague-Dawley rats (300-350 g) from the Canadian Breeding Laboratories were decapitated and after removal of the cerebellum the brains were homogenized; from tissue; host or cells: rat brain (without cerebellum) membranes, male Sprague-Dawley
T3 sequence (P33535 whole entry): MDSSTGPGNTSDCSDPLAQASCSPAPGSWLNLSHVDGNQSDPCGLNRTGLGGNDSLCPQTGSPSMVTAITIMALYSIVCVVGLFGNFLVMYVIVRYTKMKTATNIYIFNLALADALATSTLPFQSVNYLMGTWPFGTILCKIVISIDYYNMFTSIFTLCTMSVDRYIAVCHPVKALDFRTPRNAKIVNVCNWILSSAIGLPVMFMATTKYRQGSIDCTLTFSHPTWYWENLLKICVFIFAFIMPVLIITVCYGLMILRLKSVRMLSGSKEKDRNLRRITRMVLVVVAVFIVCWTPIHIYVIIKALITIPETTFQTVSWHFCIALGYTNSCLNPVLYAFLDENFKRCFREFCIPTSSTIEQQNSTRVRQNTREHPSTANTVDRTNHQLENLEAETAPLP
Excerpt: as §1

[1] = Ke (nM) against DPDPE, δ agonist DPDPE
[2] = Ke (nM) against [D-Ala2]deltorphin I, δ agonist [D-Ala2]deltorphin I
[3] = Ke (nM) against [Leu5]Enkephalin, δ agonist [Leu5]enkephalin
[4] = rat brain membranes, means of 3 determinations, read-out: Ki^.xi.
[5] = rat brain membranes, means of 3 determinations, read-out: Ki^μ
[6] = δ agonist DPDPE, read-out: Ke (nM) against DPDPE
[7] = δ agonist [D-Ala2]deltorphin I, read-out: Ke (nM) against [D-Ala2]deltorphin I
[8] = δ agonist [Leu5]enkephalin, read-out: Ke (nM) against [Leu5]Enkephalin

SMILES	Ki (δ opioid receptor)	Kb (δ opioid receptors; [1])	Kb (δ opioid receptors; [2])	Kb (δ opioid receptors; [3])	Ki (μ opioid receptor)	Ki^μ /Ki^δ (δ opioid receptor)	Ki (δ opioid receptor; [4])	Ki (μ opioid receptor; [5])	Kb (δ opioid receptors; [6])	Kb (δ opioid receptors; [7])	Kb (δ opioid receptors; [8])	δ-selectivity, times less than the δ antagonists of this application (δ opioid receptor; comparison with the δ antagonists described in this patent application)
CCCCCCN[C@@H](Cc1ccc(O)cc1)C(=O)N1Cc2ccccc2C[C@H]1C(=O)N[C@@H](Cc1ccccc1)C(=O)N[C@@H](Cc1ccccc1)C(=O)O [Tyr(N^α Hex)-TicPhePheOH, Tyr(N^α Hex)-Tic-Phe-Phe-OH]	0.951 nM	4.28 nM	10.6 nM	9.37 nM	1080 nM							
NC(=O)[C@H](Cc1c[nH]c2ccccc12)NC(=O)[C@H](Cc1ccccc1)NC(=O)[C@@H]1Cc2ccccc2CN1C(=O)[C@@H](N)Cc1ccc(O)cc1 [HTyrTicPheTrpNH2, H-Tyr-Tic-Phe-Trp-NH2] (HELM PEPTIDE1{Y.[Tic].F.W.[am]}$$$$V2.0)		41.3 nM	38.6 nM	49.5 nM		258						
N[C@@H](Cc1ccc(O)cc1)C(=O)N1Cc2ccccc2C[C@H]1C(=O)N[C@H](C(=O)N[C@@H](Cc1ccccc1)C(=O)O)c1ccccc1 [HTyrTicPhgPheOH, H-Tyr-Tic-Phg-Phe-OH] (HELM PEPTIDE1{Y.[Tic].[Phg].F}$$$$V2.0)	3.01 nM	21.5 nM	8.31 nM	13.8 nM	29000 nM	9630						
N[C@@H](Cc1ccc(O)cc1)C(=O)N1Cc2ccccc2C[C@H]1C(=O)N[C@@H](Cc1c[nH]c2ccccc12)C(=O)N[C@@H](Cc1ccccc1)C(=O)O [HTyrTicTrpPheOH, H-Tyr-Tic-Trp-Phe-OH] (HELM PEPTIDE1{Y.[Tic].W.F}$$$$V2.0)		2.56 nM	1.65 nM	2.37 nM		5950						
N=C(N)NCCC[C@H](N)C(=O)N[C@@H](Cc1ccc(O)cc1)C(=O)N1Cc2ccccc2C[C@H]1C(=O)N[C@@H](Cc1ccccc1)C(=O)N[C@@H](Cc1ccccc1)C(N)=O [HArgTyrTicPhePheNH2, H-Arg-Tyr-Tic-Phe-Phe-NH2] (HELM PEPTIDE1{R.Y.[Tic].F.F.[am]}$$$$V2.0)						22.3	4.79 nM	107 ± 2 nM				
Cc1cc(O)cc(C)c1C[C@H](N)C(=O)N1Cc2ccccc2C[C@H]1CN[C@@H](Cc1ccccc1)C(=O)N[C@@H](Cc1ccccc1)C(=O)O [HDmtTic.psi.[CH2NH]PhePheOH, H-Dmt-Tic.PSI.[CH2 --NH]Phe-Phe-OH]	1.7 nM	0.196 nM	0.157 nM	0.259 nM	95.5 nM							
N[C@@H](Cc1ccc(O)cc1)C(=O)N1Cc2ccccc2C[C@H]1C(=O)N[C@@H](Cc1cccc2ccccc12)C(=O)N[C@@H](Cc1ccccc1)C(=O)O [HTyrTic-1-NalPheOH, H-Tyr-Tic-1-Nal-Phe-OH] (HELM PEPTIDE1{Y.[Tic].[O=C([C@H](Cc1cccc2ccccc12)N[*:1])[*:2]].F}$$$$V2.0)	1.14 nM				1120 nM	982						
CN(C[C@@H]1Cc2ccccc2CN1C(=O)[C@@H](N)Cc1ccc(O)cc1)[C@@H](Cc1ccccc1)C(=O)N[C@@H](Cc1ccccc1)C(=O)O [HTyrTic.psi.[CH2NCH3]PhePheOH, H-Tyr-Tic.PSI.[CH2 --NCH3 ]Phe-Phe-OH]							0.842 nM	13400 nM	4.76 nM	2.89 nM	6.28 nM	
N[C@@H](Cc1ccc(O)cc1)C(=O)N1Cc2ccccc2C[C@H]1C(=O)N[C@@H](Cc1ccccc1)C(=O)O [HTyrTicPheOH, H-Tyr-Tic-Phe-OH] (HELM PEPTIDE1{Y.[Tic].F}$$$$V2.0)		16.1 nM	12.6 nM	11.7 nM		141	9.07 nM	1280 nM				
NC(=O)[C@H](CO)NC(=O)[C@@H]1CCCN1C(=O)[C@H](Cc1ccc(O)cc1)NC(=O)[C@H](Cc1ccccc1)NC(=O)[C@H](Cc1ccccc1)NC(=O)[C@@H]1Cc2ccccc2CN1C(=O)[C@@H](N)Cc1ccc(O)cc1 [HTyrTicPhePheTyrProSerNH2, H-Tyr-Tic-Phe-Phe-Tyr-Pro-Ser-NH2] (HELM PEPTIDE1{Y.[Tic].F.F.Y.P.S.[am]}$$$$V2.0)	0.9 nM	4.63 nM	3.9 nM	4.78 nM	658 ± 136 nM	731						
N[C@@H](Cc1ccc(O)cc1)C(=O)N1Cc2ccccc2C[C@H]1C(=O)N[C@@H](Cc1c[nH]cn1)C(=O)N[C@@H](Cc1ccccc1)C(=O)O [HTyrTicHisPheOH, H-Tyr-Tic-His-Phe-OH] (HELM PEPTIDE1{Y.[Tic].H.F}$$$$V2.0)	1.48 nM	18.2 nM	18.7 nM	20.1 nM	17000 nM	11500						
N[C@@H](Cc1ccc(O)cc1)C(=O)N1Cc2ccccc2C[C@H]1CN[C@@H](Cc1ccccc1)C(=O)O [HTyrTic-.psi.[CH2NH]PheOH, H-Tyr-Tic.PSI.[CH2 -NH]Phe-OH]							1.94 nM	10800 nM	9.06 nM	8.24 nM	9.12 nM	
N[C@@H](Cc1ccc(O)cc1)C(=O)N1Cc2ccccc2C[C@H]1C(=O)N[C@@H](Cc1ccc2ccccc2c1)C(=O)N[C@@H](Cc1ccccc1)C(=O)O [HTyrTic-2-NalPheOH, H-Tyr-Tic-2-Nal-Phe-OH] (HELM PEPTIDE1{Y.[Tic].[O=C([C@H](Cc1ccc2ccccc2c1)N[*:1])[*:2]].F}$$$$V2.0)	1.31 nM	4.41 nM	4.17 nM	2.64 nM	6330 nM	4830						
NC(=O)[C@H](Cc1ccccc1)NC(=O)[C@@H]1Cc2ccccc2CN1C(=O)[C@@H](N)Cc1ccc(O)cc1 [HTyrTicPheNH2, H-Tyr-Tic-Phe-NH2] (HELM PEPTIDE1{Y.[Tic].F.[am]}$$$$V2.0)		96.8 nM	58.9 nM	43.9 nM		52.0						
CC(C)[C@H](NC(=O)[C@H](Cc1ccccc1)NC(=O)[C@H](Cc1ccccc1)NC(=O)[C@@H]1Cc2ccccc2CN1C(=O)[C@@H](N)Cc1ccc(O)cc1)C(=O)N[C@H](C(=O)NCC(N)=O)C(C)C [HTyrTicPhePheValValGlyNH2, H-Tyr-Tic-Phe-Phe-Val-Val-Gly-NH2] (HELM PEPTIDE1{Y.[Tic].F.F.V.V.G.[am]}$$$$V2.0)	1.43 nM	6.36 nM	4.96 nM	6.48 nM	3290 nM	2300						
CN[C@@H](Cc1ccc(O)cc1)C(=O)N1Cc2ccccc2C[C@H]1C(=O)N[C@@H](Cc1ccccc1)C(=O)N[C@@H](Cc1ccccc1)C(=O)O [Tyr(N^α Me)-TicPhePheOH, Tyr(N^α Me)-Tic-Phe-Phe-OH] (HELM PEPTIDE1{[meY].[Tic].F.F}$$$$V2.0)	1.29 nM	1.22 nM	0.436 nM	1.01 nM	13400 nM							
C=CCN(CC=C)[C@@H](Cc1ccc(O)cc1)C(=O)NC(C)(C)C(=O)NC(C)(C)C(=O)N[C@@H](Cc1ccccc1)C(=O)N[C@@H](CC(C)C)C(=O)O [ICI 174864, N,N-diallyl-Tyr-Aib-Aib-Phe-Leu-OH, reference compound] (HELM PEPTIDE1{[C=CCN(CC=C)[C@@H](Cc1ccc(O)cc1)C(=O)[*:2]].[Aib].[Aib].F.L}$$$$V2.0)												10-300 times
NC(=O)[C@H](Cc1ccccc1)NC(=O)[C@H](Cc1c[nH]c2ccccc12)NC(=O)[C@@H]1Cc2ccccc2CN1C(=O)[C@@H](N)Cc1ccc(O)cc1 [HTyrTicTrpPheNH2, H-Tyr-Tic-Trp-Phe-NH2] (HELM PEPTIDE1{Y.[Tic].W.F.[am]}$$$$V2.0)		4.65 nM	2.31 nM	3.24 nM		709						
